# Measurements taken from patent US11046716B2, “Beta-lactamase inhibitors” (priority 2015, dated 2021).
# Key:
# KPC-2 = target: T1, KPC-2 (Klebsiella pneumoniae, UniProt Q9F663); assay: β-lactamase enzyme inhibition assay, KPC-2 (imipenem substrate); assay type: biochemical; details: Class A; imipenem substrate, 300 nm; read-out: KPC-2
# T1 construct: made in house; host or cells: E. coli BL21(DE3)
# Procedure: (§1) For SHV-5, Kpc-2, p99AmpC and OXA-1 β-lactamases, E. coli BL21(DE3) bacterial cells carrying expression plasmids (expressed as native untagged proteins) for the individual β-lactamases were grown in 1 L of Superbroth (Teknova Inc. Hollister, Calif.) supplemented with 100 μg/ml kanamycin selection and 1×5052 (0.5% glycerol, 0.05% glucose and 0.2% α-lactose) at 35° C. for 18-20 hours. Cells were harvested by centrifugation (4,000×g, 4° C., 20 min), resuspended in 50 ml of 10 mM HEPES pH 7.5 ( 1/20 of the initial volume). The cells were lysed by sonication (5 pulses of 45 seconds) at 45 W on ice. The lysates were clarified by centrifugation at 10,000×g for 40 minutes at 4° C. Samples were diluted 5-fold in 50 mM sodium acetate pH 5.0, stored overnight at 4° C., after which they were centrifuged at 10,000×g for 30 minutes to clarify, and filtered through 0.45 μm filters. The samples were loaded onto a 5 ml Capto S sepharose cation exchange column (GE Healthcare) pre-equilibrated with 50 mM sodium acetate pH 5.0. The column was washed with 5 column volumes of 50 mM sodium acetate pH 5.0 to wash out unbound protein and a linear gradient of NaCl (0 to 500 mM) was used to elute the protein (over 16 CV) from the column. Fractions were assayed for β-lactamase activity using Centa (Calbiochem, Gibbstown, N.J.) or Nitrocefin (EMD Millipore chemicals, Darmstadt, Germany) as a reporter β-lactamase substrate for activity in the isolated fractions. Active fractions were pooled, concentrated and further purified by gel filtration chromatography on a Superdex 75 prep grade gel filtration column (GE Healthcare, Piscataway, N.J.) pre-equilibrated in 50 mM Hepes pH 7.5, 150 mM NaCl. Active fractions were pooled concentrated, quantitated by BCA protein determination (Thermo Scientific, Rockford, Ill.), dialyzed into PBS and frozen at −80° C. in 20% glycerol until use.
# (§2) An equal volume of diluted enzyme stock was added, and the plates were incubated at 37° C. for 15 min. Nitrocefin was used as substrate for p99 AmpC, VIM-2 and OXA-1 and dispensed into each well at a final concentration of 100 μM. Absorbance at 486 nm was immediately monitored for 10 min using a Biotek Powerwave XS2 microplate spectrophotometer using the GEN5 software package (Biotek Instruments, Winooski Vt.). In an analogous fashion, imipenem was used as substrate for Kpc-2 and Cefotaxime was used for SHV-5, while changes in absorbance upon hydrolysis of the β-lactam ring were monitored at 300 nm and 260 nm respectively in UV-transparent 96-well microtiter assay plates. Maximum rates of hydrolysis were compared to those in control wells (without inhibitors), and percentages of enzyme inhibition were calculated for each concentration of inhibitor. The concentration of inhibitor needed to reduce the initial rate of hydrolysis of substrate by 50% (IC50) was calculated as the residual activity of β-lactamase at 486 nm using GraFit version 7 kinetics software package (Erithacus Software, Surrey, UK).
# (§3) Using the methodology described above, examples of the current invention were evaluated for their ability to inhibit β-lactamase enzymes from all four Ambler classifications (A through D). […] NT=Not tested.
# VIM-2 = target: T2, VIM-2 (Escherichia coli, UniProt Q5U7L7); assay: β-lactamase enzyme inhibition assay, VIM-2 (nitrocefin substrate); assay type: biochemical; details: Class B; nitrocefin substrate, 486 nm; read-out: VIM-2
# T2 construct: made in house; host or cells: E. coli BL21(DE3)
# Procedure: For Vim-2 metallo β-lactamase, the procedure was identical with the following exceptions, first the protein was not pH adjusted to pH 5 with 50 mM sodium acetate, second, the chromatography step was changed to a 5 ml Q sepharose anion exchange column pre-equilibrated with 50 mM Hepes pH 7.5, and elution of the protein was achieved by a linear gradient of NaCl (0-600 mM). Finally, the VIM-2 purification required a second run (3rd step) on the Q sepharose anion exchange column to achieve acceptable purity (>90%).
# as §2, §3
# OXA-48 = OXA-48 (UniProt Q6XEC0); assay: β-lactamase enzyme inhibition assay, Class D oxacillinase; assay type: biochemical; details: read-out: OXA-48
# [1] = tested on: E. coli expressing the Class A Extended Spectrum Beta-Lactamase (ESBL) CTX-M-15; assay: Broth microdilution MIC assay with ceftazidime, E. coli CTX-M-15; assay type: cell-based; details: for MIC (μg/mL) of Exemplary Compounds in presence of fixed β-lactams: E. coli ESBL4 CTX-M-15: Fixed CAZ (ceftazidime) 4 μg/mL
# Text: (§4) To determine the ability of test compounds to potentiate the inhibition of the growth of bacterial strains that produce beta-lactamase enzymes in the presence of a β-lactam antibiotic, classic cell based broth microdilution MIC assays were employed. Six bacteria strains producing beta-lactamase enzymes were used: E. coli expressing the Class A Extended Spectrum Beta-Lactamase (ESBL) CTX-M-15, E. cloacae expressing the Class C P99, K. pneumoniae expressing the Class A carbapenemase KPC-2, P. aeruginosa expressing the Class B carbapenemase VIM-2, K. pneumoniae expressing the class A carbapenemase KPC-2 and the class B carbapenemase VIM-4, and K. pneumoniae producing the Class D carbapenemase OXA-48. The assay was conducted in Cation Adjusted Mueller Hinton Broth (CAMHB, BD #212322, BD Diagnostic Systems, Sparks, Md.). Bacteria strains were grown for 3-5 hours in CAMBH broth. Test compounds (Examples 1-94) were added to a microtiter plate in 2-fold serial dilutions in CAMHB in a final concentration range of 16 μg/mL to 0.125 μg/ml. An overlay of CAMHB containing a Beta-lactam was added to the compounds at a final static concentration of 4 μg/ml. […] In addition to the titration of test compounds the MICs of a panel of control beta-lactams is also tested to ensure the strains are behaving consistently from test to test. Once the test compound and antibiotics are added the plates can be inoculated according to CLSI broth microdilution method. After inoculation the plates are incubated for 16-20 hours at 37° C. then the Minimal Inhibitory Concentration (MIC) of the test compound is determined visually.
# (§5) Using the methodology described above, examples of the current invention were evaluated for their ability to inhibit the growth of β-lactamase-producing bacteria in the presence of a β-lactam antibiotic.
# [2] = tested on: E. cloacae expressing the Class C P99; assay: Broth microdilution MIC assay with ceftazidime, E. cloacae P99; assay type: cell-based; details: for MIC (μg/mL) of Exemplary Compounds in presence of fixed β-lactams: E. cl. 144200 p99 AmpC: Fixed CAZ (ceftazidime) 4 μg/mL
# Text: as §4, §5
# [3] = tested on: K. pneumoniae expressing the Class A carbapenemase KPC-2; assay: Broth microdilution MIC assay with meropenem, K. pneumoniae KPC-2; assay type: cell-based; details: Fixed Mero (meropenem) 4 μg/mL; K. p. 156319 KPC-3
# Text: as §4, §5
# [4] = tested on: P. aeruginosa expressing the Class B carbapenemase VIM-2; assay: Broth microdilution MIC assay with meropenem, P. aeruginosa VIM-2; assay type: cell-based; details: Fixed Mero (meropenem) 4 μg/mL; P. aerug. 2775 VIM-2
# Text: as §4, §5
# [5] = tested on: K. pneumoniae expressing the class A carbapenemase KPC-2 and the class B carbapenemase VIM-4; assay: Broth microdilution MIC assay with meropenem, K. pneumoniae KPC-2 and VIM-4; assay type: cell-based; details: Fixed Mero (meropenem) 4 μg/mL; K. p. A-1797 KPC-2 VIM-4
# Text: as §4, §5
# [6] = tested on: K. pneumoniae producing the Class D carbapenemase OXA-48; assay: Broth microdilution MIC assay with meropenem, K. pneumoniae OXA-48; assay type: cell-based; details: Fixed Mero (meropenem) 4 μg/mL; K. p. 11978 OXA-48
# Text: as §4, §5
# SHV-5 = target: T3, SHV-5 (Klebsiella pneumoniae, UniProt P0A3M1); assay: β-lactamase enzyme inhibition assay, SHV-5 (cefotaxime substrate); assay type: biochemical
# T3 construct: made in house; host or cells: E. coli BL21(DE3)
# Procedure: as §1, §2, §3
# AmpC = target: T4, AmpC (Enterobacter cloacae, UniProt P05364); assay: β-lactamase enzyme inhibition assay, p99 AmpC (nitrocefin substrate); assay type: biochemical
# T4 construct: made in house; host or cells: E. coli BL21(DE3)
# Procedure: as §1, §2, §3
# T1 sequence (Q9F663 25-293, looked up): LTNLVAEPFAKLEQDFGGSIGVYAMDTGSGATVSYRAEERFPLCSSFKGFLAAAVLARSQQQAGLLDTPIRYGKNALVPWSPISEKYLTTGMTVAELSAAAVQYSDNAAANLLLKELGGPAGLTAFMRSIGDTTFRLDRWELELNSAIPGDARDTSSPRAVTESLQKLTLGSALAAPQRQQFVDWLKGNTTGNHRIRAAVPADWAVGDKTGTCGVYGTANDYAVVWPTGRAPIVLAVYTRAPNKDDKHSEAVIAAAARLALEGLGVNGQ
# T3 sequence (P0A3M1 22-286): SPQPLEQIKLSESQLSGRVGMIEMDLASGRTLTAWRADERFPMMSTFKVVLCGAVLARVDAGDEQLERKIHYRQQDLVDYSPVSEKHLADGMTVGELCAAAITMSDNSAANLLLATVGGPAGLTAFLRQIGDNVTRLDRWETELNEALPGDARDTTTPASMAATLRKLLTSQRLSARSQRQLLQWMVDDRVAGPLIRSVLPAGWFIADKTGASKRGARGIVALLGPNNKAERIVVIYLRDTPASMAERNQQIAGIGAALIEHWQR
# T4 sequence (P05364 21-381): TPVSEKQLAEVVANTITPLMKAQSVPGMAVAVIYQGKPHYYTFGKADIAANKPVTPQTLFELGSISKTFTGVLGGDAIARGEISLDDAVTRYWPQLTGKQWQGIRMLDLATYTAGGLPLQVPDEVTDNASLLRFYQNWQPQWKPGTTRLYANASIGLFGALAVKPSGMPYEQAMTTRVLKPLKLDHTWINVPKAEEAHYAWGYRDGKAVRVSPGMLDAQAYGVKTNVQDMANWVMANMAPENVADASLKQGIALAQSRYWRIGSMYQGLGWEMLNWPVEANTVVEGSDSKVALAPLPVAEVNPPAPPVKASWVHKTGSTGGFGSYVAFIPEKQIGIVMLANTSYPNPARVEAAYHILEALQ
Compound,IC50 (KPC-2) [nM],IC50 (VIM-2) [nM],IC50 (OXA-48) [nM],MIC (μg/mL) of Exemplary Compounds in presence of fixed β-lactams: E. coli ESBL4 CTX-M-15 [1],MIC (μg/mL) of Exemplary Compounds in presence of fixed β-lactams: E. cl. 144200 p99 AmpC [2],MIC (μg/mL) of Exemplary Compounds in presence of fixed β-lactams: K. p. 156319 KPC-3 [3],MIC (μg/mL) of Exemplary Compounds in presence of fixed β-lactams: P. aerug. 2775 VIM-2 [4],MIC (μg/mL) of Exemplary Compounds in presence of fixed β-lactams: K. p. A-1797 KPC-2 VIM-4 [5],MIC (μg/mL) of Exemplary Compounds in presence of fixed β-lactams: K. p. 11978 OXA-48 [6],"MIC ([1]; Escherichia coli, read-out: MIC alone) [µg/mL]","MIC ([2]; Enterobacter cloacae, read-out: MIC alone) [µg/mL]",IC50 (SHV-5) [nM],IC50 (AmpC) [nM]
"O=C(Cn1cncn1)N[C@H]1Cc2cccc(C(=O)O)c2OB1O [Example 18, (R)-3-(2-(1H-1,2,4-triazol-1-yl)acetamido)-2-hydroxy-3,4-dihydro-2H-benzo[e][1,2]oxaborinine-8-carboxylic acid]",< 100,100 to 1000,1000 to 10000,C (C represents an MIC of <1 μg/mL),C (C represents an MIC of <1 μg/mL),C (C represents an MIC of <1 μg/mL),B (B represents an MIC between 1 and 16 μg/mL inclusive),B (B represents an MIC between 1 and 16 μg/mL inclusive),B (B represents an MIC between 1 and 16 μg/mL inclusive),,,,
"CC(C)(O/N=C(\C(=O)N[C@@H]1C(=O)N2C(C(=O)[O-])=C(C[n+]3ccccc3)CS[C@H]12)c1csc(N)n1)C(=O)O [Ceftazidime, ceftazidime, reference compound]",,,,,,,,,,> 128,128,,
"NCc1nnnn1CC(=O)N[C@H]1Cc2cccc(C(=O)O)c2OB1O [Example 17, (R)-3-(2-(5-(aminomethyl)-1H-tetrazol-1-yl)acetamido)-2-hydroxy-3,4-dihydro-2H-benzo[e][1,2]oxaborinine-8-carboxylic acid]",< 100,< 100,100 to 1000,C (C represents an MIC of <1 μg/mL),C (C represents an MIC of <1 μg/mL),B (B represents an MIC between 1 and 16 μg/mL inclusive),C (C represents an MIC of <1 μg/mL),B (B represents an MIC between 1 and 16 μg/mL inclusive),B (B represents an MIC between 1 and 16 μg/mL inclusive),,,,
"O=C(Cn1cc(-c2ccccn2)nn1)N[C@H]1Cc2cccc(C(=O)O)c2OB1O [Example 10, (R)-2-hydroxy-3-(2-(4-(pyridin-2-yl)-1H-1,2,3-triazol-1-yl)acetamido)-3,4-dihydro-2H-benzo[e][1,2]oxaborinine-8-carboxylic acid]",< 100,1000 to 10000,< 100,C (C represents an MIC of <1 μg/mL),C (C represents an MIC of <1 μg/mL),B (B represents an MIC between 1 and 16 μg/mL inclusive),,A (A represents an MIC>16 μg/mL),B (B represents an MIC between 1 and 16 μg/mL inclusive),,,< 100,< 100
"Cc1nnn(CC(=O)N[C@H]2Cc3cccc(C(=O)O)c3OB2O)c1CN [Example 120, (R)-3-(2-(5-(aminomethyl)-4-methyl-1H-1,2,3-triazol-1-yl)acetamido)-2-hydroxy-3,4-dihydro-2H-benzo[e][1,2]oxaborinine-8-carboxylic acid]",< 100,< 100,< 100,C (C represents an MIC of <1 μg/mL),C (C represents an MIC of <1 μg/mL),B (B represents an MIC between 1 and 16 μg/mL inclusive),,B (B represents an MIC between 1 and 16 μg/mL inclusive),B (B represents an MIC between 1 and 16 μg/mL inclusive),,,100 to 1000,< 100
